Target: T1, Human BACE (Homo sapiens, UniProt P56817)
T1 construct: Recombinant BACE (extracellular domain, expressed in baculovirus and purified using standard methods); made in house; host or cells: baculovirus expression system (insect cells)
Assay: Test 1: Inhibition of Human BACE
Assay type: biochemical
Settings: recombinant BACE, fluorescence-quenched peptide substrate, pH 4.5
Description: Test 1: Inhibition of Human BACE
Recombinant BACE (extracellular domain, expressed in baculovirus and purified using standard methods) at 0.1 to 10 nM concentrations is incubated with the test compound at various concentrations for 1 hour at room temperature in 10 to 100 mM acetate buffer, pH 4.5, containing 0.1% CHAPS.

T1 sequence (P56817 46-457 limits assumed): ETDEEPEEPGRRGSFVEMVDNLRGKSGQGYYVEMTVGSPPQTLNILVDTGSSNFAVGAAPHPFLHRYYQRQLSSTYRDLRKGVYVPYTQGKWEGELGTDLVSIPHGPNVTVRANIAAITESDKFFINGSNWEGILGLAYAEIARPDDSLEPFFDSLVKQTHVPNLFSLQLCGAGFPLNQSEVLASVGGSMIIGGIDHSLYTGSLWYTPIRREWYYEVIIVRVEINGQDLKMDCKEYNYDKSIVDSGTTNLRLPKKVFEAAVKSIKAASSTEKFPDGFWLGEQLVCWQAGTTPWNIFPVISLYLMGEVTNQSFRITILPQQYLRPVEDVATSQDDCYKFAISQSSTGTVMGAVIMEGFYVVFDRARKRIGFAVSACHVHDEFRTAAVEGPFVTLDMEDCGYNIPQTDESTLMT

Structure (SMILES): COc1cc2cc(c1)C(=O)N[C@H]([C@H](O)CNC1(c3cc(C(C)(C)C)ccn3)CC1)C[C@H](C)CCCCCCCN2 [Example 7, (10R,12S)-12-{(R)-2-[1-(4-tert-Butyl-pyrid-2-yl)-cyclopropylamino]-1-hydroxy-ethyl}-17-methoxy-10-methyl-2,13-diaza-bicyclo[13.3.1]nonadeca-1(19),15,17-trien-14-one]
- IC50: 40 nM
